Consider 59 compounds from a melting point compilation (Tetko et al.; mined from patent text by program, amines drawn as free bases though some values may be those of a salt).

Structures are written as SMILES. Bounds are passed on as bounds.

What is called melting point is the temperature, or range, at which the solid turns liquid. `CCCn1c(=O)c2c(NC)n[nH]c2n(Cc2cccs2)c1=O` had a melting point of over 300 °C.
To `CCOC(=O)CON1C(=O)C(=O)N(c2ccccc2SC)C1=S` belongs 112 to 114 °C.
To `Cc1c(Sc2ccccc2C(F)(F)F)c2cc(NS(C)(=O)=O)ccc2n1CC(=O)O` belongs 207 °C.
On to `O=C(O)C1Cc2ccc3ccccc3c2C1` (single isomer, unassigned; (-)), for which the melting point fell in the range of 139 to 141 °C.
The compound `CCc1cc2c(ccc(=O)n2Cc2ccc(NC(=O)c3ccccc3S(=O)(=O)O)cc2)c(CC)n1` yielded a melting point of 233 to 236 °C.
`COc1ccccc1-n1c(=O)[nH]c2c(C(N)=O)nc(-c3ccc4nc(C)[nH]c4c3)nc21` came in with a melting point of 270 °C.
To `CCC(=O)N1CCC(NC(=O)Nc2ccccc2F)CC1` belongs 127 to 130 °C.
To `N=c1sc2cc(OC(F)(F)F)ccc2n1CCSCc1ccccn1` belongs 125 °C.
The same measure for `O=[N+]([O-])c1ccc(F)c(I)c1F`: 46.1 to 47.5 °C; for `COC(=O)c1cc(C=O)c(C)nc1C1=NC(C)(C(C)C)C(=O)N1` (centres undefined): 145 to 146 °C; for `CCc1cc2c(O)cc(=O)oc2cc1OC`: 174 to 175 °C.
In turn, `CCC1C(C)=NN=C(c2ccccc2F)c2cc(OC)c(OC)cc21` (centres undefined) gave a melting point of 86 to 88 °C.
For `C#Cc1cccc(Nc2ncnc3[nH]cc(-c4cccc([N+](=O)[O-])c4)c23)c1`, the melting point lay in the range of 189 to 190 °C.
To `CC1=C(C(=O)OCCO)C(c2ccccc2C(F)(F)F)C(C(=O)OCCO)=C(C)N1` belongs 125 to 127 °C; to `CC1(COc2ccc(Cc3nnn[nH]3)cc2)CCCCC1=NO` (centres undefined), 153 to 156 °C; to `COc1ccc(CNC(=O)c2c[nH]c3ccc(N4CCCC4)nc3c2=O)cc1`, 270 to 272 °C.
Turning to `COc1ccc(C2(C#Cc3cccc(-c4nc(C)no4)c3)CCC(=O)CC2)cc1OC1CCCC1`, the melting point was in the range of 88 to 91 °C.
To `COC(=O)c1ccc(-c2nc(-c3ccc(C(F)(F)F)cc3)co2)cc1` belongs 182 to 183 °C; to `COCOCc1cccc(-c2ccc(C(=O)OC)cc2)c1`, 54 to 55 °C; to `O=C(CC1CCN(Cc2ccccc2)CC1)c1ccc(O)cc1`, 197 to 198 °C.
To `N#CSc1ccc(N)c(C(=O)c2ccccn2)c1` belongs 102 to 104 °C; to `COc1cc(C)cc(OC)c1-c1nc(=NO)c(=O)n(C)c2ccccc12`, 150 °C.
The same measure for `COc1ccc(C(=NN)Nc2ccc([N+](=O)[O-])cc2)cc1`: 104 °C; for `C=CC1CC2=CC(=O)CCC2C2CCC3(CC)C(O)CCC3C12` (centres undefined): 155 to 156 °C.
For the compound `COCCOc1cc2nncc(Oc3cc(O)c(C)cc3F)c2cc1OC`, the melting point lay in the range of 267 to 273 °C.
The same measure for `O=C(Nc1nnn[nH]1)c1ccc2nc3ccsc3c(=O)n2c1`: 295 to 296 °C.
The same measure for `O=C1NC(=O)C2CC(SC3=CCC4C(=O)NC(=O)C4C3)=CCC12` (centres undefined): 204 to 208 °C.
The same measure for `Cn1c(C(=O)O)cc(=O)c2cc(O)c(=O)c(Br)cc21`: over 250 °C; for `Cc1nc(N2CCN(Cc3ccc(F)cc3)C2=O)sc1C(=O)NCc1cnn(C)c1`: 173 to 175 °C.
On to `CCOC1=NC(N)=C(C(=O)OC)C(c2cccc([N+](=O)[O-])c2)C1C(=O)OC` (centres undefined), for which the melting point worked out at 163 °C.
The same measure for `O=C1CCC(N2Cc3c(OCc4cccc(CN5CCn6nc(C(F)(F)F)nc6C5)c4)cccc3C2=O)C(=O)N1` (centres undefined): 213 to 215 °C.
Compound `CCOC(=O)c1cnn2c1c(Nc1ccccc1)nc1ccccc12` gave a melting point of 145 to 147 °C.
To `Nc1c(Cl)cc(Cn2nc(-c3ccc(Cl)c(Cl)c3)oc2=O)c(O)c1Cl` belongs 200 to 202 °C; to `COc1ccc2[nH]c3c(c2c1)C(=O)/C(=C/c1nc[nH]c1C)CC3`, 133 to 135 °C.
For the compound `COC(=O)CCc1cc2cc(Cl)ccc2n1S(=O)(=O)c1cc(OC)ccc1OC`, the melting point was 120 to 124 °C.
The same measure for `N#Cc1cc(-c2nccs2)nn1-c1ccc(NC(=O)c2ccncc2F)cc1`: 210 to 211 °C; for `COc1cccc2c(O)cnnc12`: 160 to 163 °C; for `FC(F)(F)c1cc(CN2CCc3cc(OC[C@H]4CO[C@](Cn5ccnc5)(c5ccc(Cl)cc5Cl)O4)ccc3C2)ccc1Cl` (racemic): 107 to 108 °C.
Take `CN1C(=O)[C@H](NC(=O)Nc2ccc(Cl)cc2Cl)N=C(c2ccccc2)c2ccccc21`: the melting point fell in the range of 215 to 216 °C.
To `CN(CCc1ccccc1)C(=O)C(C)(Cc1c[nH]c2ccccc12)NC(=O)OC1C2CC3CC(C2)CC1C3` (centres undefined) belongs 90 to 95 °C.
`CCOC(=O)c1nc(NCC(c2ccccc2)c2ccccc2)c2ncn([C@@H]3O[C@H](CO)[C@@H](O)[C@H]3O)c2n1` yielded a melting point of 118 to 120 °C.
Take `CCOC(=O)CC[C@H](NC(=O)c1csc(CCCc2coc3nc(N)nc(N)c23)c1)C(=O)OCC`: the melting point fell in the range of 79 to 80 °C.
The same measure for `COc1cc(C(=O)N2CCC(CCN3CCC(C(=O)c4nc5ccccc5n4Cc4ccc(F)cc4)CC3)(c3ccc(F)cc3F)C2)cc(OC)c1OC` (centres undefined): 58 to 60 °C.
Regarding `Nc1ccc(OCCCCCC(=O)OCCOCCOC(=O)CCCCCOc2ccc(N)cc2)cc1`, the melting point is 56 to 58 °C.
To `COc1cn(-c2cc3c(cc2F)OC(F)(F)O3)nc(-c2ccnn2-c2ccccc2)c1=O` belongs 200 to 202 °C; to `CCc1c(-c2ccc(O)cc2)c2c(COCCCCCCN3CCCCC3)cc3c(O)ccc1n32`, 129 to 131 °C; to `O=C(O)Cc1c[nH]c(-c2cc3nc(C(=O)O)c(=O)[nH]c3cc2[N+](=O)[O-])n1`, over 300 °C.
The same measure for `Cc1ccc(C2CNCc3[nH]c4ccccc4c32)cc1` (centres undefined): 223 to 224 °C; for `N#Cc1cccc(NCc2nc3ccc(F)cc3c(=O)n2-c2ccccc2Cl)c1`: 225 to 228 °C; for `COC(=O)C(=Cc1ccc(-c2cccc(N(C)C(=O)Nc3ccccc3)c2)cc1)OC`: 186 °C.
To `CC[C@@H](C)[C@H](N)C(O)(c1ccccc1)c1ccccc1` belongs 128 to 129 °C; to `CC(C)(C)c1cc(C(C)(C)C)c(O)c(C(=O)Nc2ccc(S(=O)(=O)C(F)(F)F)cc2Cl)c1O`, 149 to 150 °C; to `N=C(N)Nc1nc2ccccc2n1Cc1ccccc1`, 167 °C.
`CCCCCCCCCCCCCCCCSCC(CNS(=O)(=O)CCCI)NC(=O)OC` (centres undefined) had a melting point of 79 to 81 °C.
For `CCOC(=O)CCc1ccc(OC(C)C)nc1Oc1ccc(Cl)cc1Cl`, the melting point was in the range of 42.5 to 43.5 °C.
To `CC(=O)OC1CCC2(C)C(CCC3C4CC5OC6(CC(C)C(C)(C)O6)C(C)(O)C5C4(C)CC(OC(C)=O)C32)C1` (centres undefined) belongs 253 to 256 °C.
The compound `CCN(CC)C(=O)c1cc(OC)cc(Oc2cccc(C(F)(F)F)c2)n1` registered a melting point of 78 to 89 °C.
Compound `CCNc1cc(O)c(C(=O)c2ccccc2C(=O)O)cc1C` returned a melting point of 200 to 202 °C.
In the case of `COc1ccc(CN(CC(=O)O)c2nc(NC(=O)Nc3ccccc3OC)nc(Nc3ccccc3-c3ccccc3)n2)cc1`, the melting point lay within 147 to 149 °C.
